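Protocol summary: plate cells (96-well), add compound at 5 concentrations, incubate 48 h, interpolate endpoints linearly. Here, GI50 denotes the concentration required for 50% inhibition of growth. The concentration for full growth arrest is given as TGI.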
Columns and labels:
Experiment in all cases: NCI-60 cell line screen, 48 h
[1] = system: 786-0 renal
[2] = system: A498 renal
[3] = system: A549 NSCLC
[4] = system: ACHN renal
[5] = system: BT-549 breast
[6] = system: CAKI-1 renal
[7] = system: CCRF-CEM leukemia
[8] = system: COLO 205 colon
[9] = system: DU-145 prostate
[10] = system: EKVX NSCLC
[11] = system: HCC-2998 colon
[12] = system: HCT-116 colon
[13] = system: HCT-15 colon
[14] = system: HOP-62 NSCLC
[15] = system: HOP-92 NSCLC
[16] = system: HS 578T breast
[17] = system: HT29 colon
[18] = system: IGROV1 ovarian
[19] = system: K-562 leukemia
[20] = system: KM12 colon
[21] = system: LOX IMVI melanoma
[22] = system: M14 melanoma
[23] = system: MALME-3M melanoma
[24] = system: MCF7 breast
[25] = system: MDA-MB-231 breast
[26] = system: MOLT-4 leukemia
[27] = system: NCI-H226 lung
[28] = system: NCI-H23 lung
[29] = system: NCI-H460 lung
[30] = system: NCI-H522 lung
[31] = system: NCI/ADR-RES ovarian
[32] = system: OVCAR-3 ovarian
[33] = system: OVCAR-4 ovarian
[34] = system: OVCAR-5 ovarian
[35] = system: OVCAR-8 ovarian
[36] = system: PC-3 prostate
[37] = system: RPMI-8226 leukemia
[38] = system: RXF 393 renal
[39] = system: SF-268 CNS
[40] = system: SF-295 CNS
[41] = system: SF-539 CNS
[42] = system: SK-MEL-2 melanoma
[43] = system: SK-MEL-28 melanoma
[44] = system: SK-MEL-5 melanoma
[45] = system: SK-OV-3 ovarian
[46] = system: SN12C renal
[47] = system: SNB-19 CNS
[48] = system: SNB-75 CNS
[49] = system: SR leukemia
[50] = system: SW-620 colon
[51] = system: T-47D breast
[52] = system: TK-10 renal
[53] = system: U251 CNS
[54] = system: UACC-257 melanoma
[55] = system: UACC-62 melanoma
[56] = system: UO-31 renal

## O=C(Nc1nc(-c2ccc(Cl)cc2)cs1)c1cc(-c2ccc(Br)cc2)nc2ccc(Cl)cc12
[1]
  GI50: 3.53 µM
  TGI: 67.1 µM
[2]
  GI50: 30.7 µM
  TGI: > 100 µM
[3]
  GI50: 43.8 µM
  TGI: > 100 µM
[4]
  GI50: 5.18 µM
  TGI: > 100 µM
[5]
  GI50: 2.47 µM
  TGI: 7.89 µM
[6]
  GI50: 20.5 µM
  TGI: > 100 µM
[7]
  GI50: 4.06 µM
  TGI: > 100 µM
[8]
  GI50: 26.9 µM
  TGI: > 100 µM
[9]
  GI50: 3.67 µM
  TGI: > 100 µM
[10]
  GI50: 15.3 µM
  TGI: > 100 µM
[11]
  GI50: 19.4 µM
  TGI: > 100 µM
[12]
  GI50: 0.876 µM
  TGI: 11.3 µM
[13]
  GI50: 3.12 µM
  TGI: 26.6 µM
[14]
  GI50: 4.66 µM
  TGI: > 100 µM
[15]
  GI50: 2.98 µM
  TGI: 22.2 µM
[16]
  GI50: 2.71 µM
  TGI: 18.2 µM
[17]
  GI50: 3.89 µM
  TGI: > 100 µM
[18]
  GI50: 2.7 µM
  TGI: > 100 µM
[19]
  GI50: 3.36 µM
  TGI: > 100 µM
[20]
  GI50: 3.35 µM
  TGI: 27.1 µM
[21]
  GI50: 2.77 µM
  TGI: > 100 µM
[22]
  GI50: 2.16 µM
  TGI: 11.2 µM
[23]
  GI50: 5.59 µM
  TGI: 76.5 µM
[24]
  GI50: 2.62 µM
  TGI: > 100 µM
[25]
  GI50: 3.02 µM
  TGI: 15.3 µM
[26]
  GI50: 3.77 µM
  TGI: > 100 µM
[27]
  GI50: 2.98 µM
  TGI: 15.4 µM
[28]
  GI50: 5.64 µM
  TGI: > 100 µM
[29]
  GI50: 32.7 µM
  TGI: > 100 µM
[30]
  GI50: 7.87 µM
  TGI: > 100 µM
[31]
  GI50: 3.97 µM
  TGI: > 100 µM
[32]
  GI50: 2.86 µM
  TGI: 9.19 µM
[33]
  GI50: 7.1 µM
  TGI: > 100 µM
[34]
  GI50: 28.6 µM
  TGI: > 100 µM
[35]
  GI50: 3.94 µM
  TGI: 62.4 µM
[36]
  GI50: 4.16 µM
  TGI: > 100 µM
[37]
  GI50: 3.73 µM
  TGI: > 100 µM
[38]
  GI50: 19.1 µM
  TGI: 89.7 µM
[39]
  GI50: 3.86 µM
  TGI: 36.4 µM
[40]
  GI50: 4.42 µM
  TGI: 58.6 µM
[41]
  GI50: 2.78 µM
  TGI: 10.4 µM
[42]
  GI50: 6.69 µM
  TGI: > 100 µM
[43]
  GI50: 5.62 µM
  TGI: > 100 µM
[44]
  GI50: 3.28 µM
  TGI: 13.1 µM
[45]
  GI50: 34.2 µM
  TGI: > 100 µM
[46]
  GI50: 4.78 µM
  TGI: 54.6 µM
[47]
  GI50: 5.22 µM
  TGI: > 100 µM
[48]
  GI50: 3.63 µM
  TGI: > 100 µM
[49]
  GI50: 3.72 µM
  TGI: > 100 µM
[50]
  GI50: 4.35 µM
  TGI: > 100 µM
[51]
  GI50: 16.1 µM
  TGI: > 100 µM
[52]
  GI50: 29.2 µM
  TGI: > 100 µM
[53]
  GI50: 4.39 µM
  TGI: 37.8 µM
[54]
  GI50: 24.1 µM
  TGI: > 100 µM
[55]
  GI50: 3.49 µM
  TGI: 22.6 µM
[56]
  GI50: 3.45 µM
  TGI: > 100 µM

From PubChem BioAssay (NCI)
